Results as given in the supplement of paper PMC9663587.

Columns and labels:
[1] = compound: CC(=O)Nc1cccc(-n2c(=O)n(C3CC3)c(=O)c3c(Nc4ccc(I)cc4F)n(C)c(=O)c(C)c32)c1
Bleomycin = compound: CC1=C(N=C(N=C1N)[C@H](CC(=O)N)NC[C@@H](C(=O)N)N)C(=O)N[C@@H]([C@H](C2=CN=CN2)OC3C(C(C(C(O3)CO)O)O)OC4C(C(C(C(O4)CO)O)OC(=O)N)O)C(=O)N[C@H](C)[C@H]([C@H](C)C(=O)N[C@@H]([C@@H](C)O)C(=O)NCCC5=NC(=CS5)C6=NC(=CS6)C(=O)NCCC[S+](C)C)O [Bleomycin]; details: main component drawn
TGX221 = compound: CC1=CN2C(=O)C=C(N=C2C(=C1)C(C)NC3=CC=CC=C3)N4CCOCC4 [TGX221]
[2] = compound: CCN1CCN(Cc2ccc(Nc3ncc(F)c(-c4cc(F)c5nc(C)n(C(C)C)c5c4)n3)nc2)CC1
Topotecan = compound: CC[C@@]1(O)C(=O)OCc2c1cc1n(c2=O)Cc2cc3c(CN(C)C)c(O)ccc3nc2-1 [Topotecan]
Etoposide = compound: COc1cc([C@@H]2c3cc4c(cc3[C@@H](O[C@@H]3O[C@@H]5CO[C@@H](C)O[C@H]5[C@H](O)[C@H]3O)[C@H]3COC(=O)[C@H]23)OCO4)cc(OC)c1O [Etoposide]
Cisplatin = compound: N.N.Cl[Pt]Cl [Cisplatin]
YKL-5-124 = compound: C=CC(=O)Nc1ccc(C(=O)Nc2[nH]nc3c2CN(C(=O)N[C@H](CN(C)C)c2ccccc2)C3(C)C)cc1 [YKL-5-124]
FMF-03-145-1 = compound: CCC(=O)Nc1ccc(C(=O)Nc2ccc(Nc3ncc4c(n3)N(C)c3ccc(C)cc3C(=O)N4C)cc2)cc1 [FMF-03-145-1]
THZ531 = compound: CN(C)C/C=C/C(=O)Nc1ccc(C(=O)N2CCC[C@@H](Nc3ncc(Cl)c(-c4c[nH]c5ccccc45)n3)C2)cc1 [THZ531]
Everolimus = compound: CO[C@H]1C[C@@H]2CC[C@@H](C)[C@@](O)(O2)C(=O)C(=O)N2CCCC[C@H]2C(=O)O[C@H]([C@H](C)C[C@@H]2CC[C@@H](OCCO)[C@H](OC)C2)CC(=O)[C@H](C)/C=C(\C)[C@@H](O)[C@@H](OC)C(=O)[C@H](C)C[C@H](C)/C=C/C=C/C=C/1C [Everolimus]
[3] = compound: COc1cccc(OCCCN)c1-c1cc(Nc2cnc(C#N)cn2)n[nH]1
AZD6738 = compound: C[C@@H]1COCCN1c1cc(C2([S@](C)(=N)=O)CC2)nc(-c2cc[nH]c3nccc2-3)n1 [AZD6738]
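Note: breast cancer and non-malignant breast epithelial cell lines, Deep Dye Drop or Dye Drop imaging, nine half-log doses, GR normalized to time-zero plates and DMSO-only controls.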

Cell Line	GR50, 72 h [1] [µM]	GR50, 72 h (Bleomycin) [µM]	GR50, 72 h (TGX221) [µM]	GR50, 72 h [2] [µM]	GR50, 72 h (Topotecan) [µM]	GR50, 72 h (Etoposide) [µM]	GR50, 72 h (Cisplatin) [µM]	GR50, 72 h (YKL-5-124) [µM]	GR50, 72 h (FMF-03-145-1) [µM]	GR50, 72 h (THZ531) [µM]	GR50, 72 h (Everolimus) [µM]	GR50, 72 h [3] [µM]	GR50, 72 h (AZD6738) [µM]
HCC1500	0.142	2.28	> 10	0.479	0.00546	1.43	3.45						
CAL51	> 1	0.169	> 10	0.113	0.0191	0.24	2.1	0.00889	0.00666	> 1	> 10	0.000588	5.34
SKBR3	> 1	1.05	> 10	0.0353	0.0165	0.398	5.11	< 0.001	0.00508	0.0273	< 0.001	0.000441	0.845
MDAMB330	0.138		> 10	0.00409						0.0247	< 0.001	0.000237	8.42
ZR751	0.0293		0.371	0.0666				0.0019	0.00573	0.427	< 0.001	0.0012	> 10
MDAMB231	0.00263	6.32	> 10	0.0468	0.0297	0.704	2.41	< 0.001		0.245	> 10	0.000148	8.89
SUM149	0.0112	0.039	> 10	0.594	0.00569	0.127	0.571	< 0.001	0.00558	0.345	> 10	0.000514	3.87
HCC70	0.0019	0.398	0.0912	1.9	0.00946	0.365	1.32	< 0.001		0.0623	0.245		1.84
EVSAT	> 1		1.39	1.25				< 0.001		0.124			> 10
SUM190PT	> 1		> 10	0.0206				< 0.001		0.0528	0.00331	0.00042	4.09
PDX1206								0.0811		0.0456		0.00357	4.6
HCC1395	0.172	0.104	8.42	0.112	0.00275	0.42	0.491	0.00123	0.00474	0.0785	0.00256	0.000487	1.81
UACC893	0.0212		> 10	0.00967				0.00386		0.0414		0.0579	9.33
HCC1806	> 1	8.98	> 10	0.554	0.00527	0.0964	0.833	< 0.001		0.407	> 10		1.1
